Source: patent publication US6403601B1, “N-(2-phenyl-4-piperidinybutyl)-5,6,7,8-tetrahydro-1-naphthalenecarboxamides and their use as neurokinin 1 (NK1) and/or neurokinin 2 (NK2) receptor antagonists” (Astrazeneca AB, priority 1998, dated 2002)

Key:
NK1 receptors = target: T1, NK1 receptors (Cavia porcellus, UniProt P30547); assay: NK1 In Vivo Functional Assay (Test E), agonist-induced bronchoconstriction in anesthetized guinea pigs; parameters: species or system guinea pig; conditions: 120 minutes prior to agonist ASMSP, Dose Ratio of ED50 in presence/absence of antagonist
T1 construct: from tissue; host or cells: whole anesthetized guinea pig (airways)
T1 sequence (P30547 whole entry): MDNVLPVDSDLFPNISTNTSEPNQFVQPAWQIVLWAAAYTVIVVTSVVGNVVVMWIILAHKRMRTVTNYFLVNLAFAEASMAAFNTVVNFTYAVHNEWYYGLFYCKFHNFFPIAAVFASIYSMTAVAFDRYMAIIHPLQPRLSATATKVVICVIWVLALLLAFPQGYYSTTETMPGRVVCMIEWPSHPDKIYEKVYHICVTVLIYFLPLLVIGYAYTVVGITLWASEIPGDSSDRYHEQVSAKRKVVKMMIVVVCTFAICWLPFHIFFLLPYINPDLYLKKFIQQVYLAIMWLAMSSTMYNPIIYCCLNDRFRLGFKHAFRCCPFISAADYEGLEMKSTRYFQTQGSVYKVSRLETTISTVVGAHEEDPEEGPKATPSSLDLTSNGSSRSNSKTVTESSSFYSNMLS
Experimental: NK1 and NK2 In Vivo Functional Assay (Test E)
Exp. Ther., 1993, Vol 267(3), pp 1168-1175. The assay is carried out as follows.
Compounds are tested in anesthetized guinea pigs pretreated with i.v. indomethacin (10 mg/kg, 20 min.), propranolol (0.5 mg/kg, 15 min.), and thiorphan (10 mg/kg, 10 min).
Antagonists or vehicle are administered i.v. and orally, 30 and 120 minutes prior to increasing concentrations of agonist, respectively. The agonists used in these studies are ASMSP (Ac-[Arg^6,Sar^9,Met(O2)^11]-SP(6-11)) and BANK (β-ala-8 NKA4-10).
Administered i.v., ASMSP is selective for NK1 receptors, and BANK is selective for NK2 receptors. Maximum response is defined as zero conductance (GL, 1/Rp). ED50 values are calculated (the dose of agonist resulting in a reduction of GL to 50% of baseline), and converted to the negative logarithm (−logED50). The ED50 values, obtained in the presence (P) and absence (A) of antagonist, are used to calculate a Dose Ratio (P/A), an expression of potency. Data are expressed as mean±SEM and statistical differences were determined using ANOVA/Tukey-Kramer and Student's t-test , with p<0.05 considered statistically significant.

NK2 = target: T2, NK2 (Oryctolagus cuniculus, UniProt P79218); assay: Rabbit Pulmonary Artery: NK2 In Vitro Functional Assay (Test D); type: cell-based; conditions: agonist BANK; -log molar KB; read-out: Rabbit Pulmonary Artery NK2 pKb (Test D) (converted)
T2 construct: The pulmonary arteries are isolated from the rest of the tissues, then rubbed over an intimal surface to remove the endothelium; from tissue; host or cells: rabbit pulmonary artery rings, endothelium removed
T2 sequence (P79218 1-384): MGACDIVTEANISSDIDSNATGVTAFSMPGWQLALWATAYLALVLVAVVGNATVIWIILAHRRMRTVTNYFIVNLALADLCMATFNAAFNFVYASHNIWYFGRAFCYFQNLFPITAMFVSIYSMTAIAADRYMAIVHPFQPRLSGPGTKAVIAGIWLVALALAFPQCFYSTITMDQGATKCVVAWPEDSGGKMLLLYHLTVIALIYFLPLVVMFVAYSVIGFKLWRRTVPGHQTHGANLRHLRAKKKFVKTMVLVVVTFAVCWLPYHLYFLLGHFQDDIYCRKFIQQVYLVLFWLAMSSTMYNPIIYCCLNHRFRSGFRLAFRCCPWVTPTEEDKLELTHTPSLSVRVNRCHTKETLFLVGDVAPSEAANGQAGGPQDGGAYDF
Experimental: NK2 In Vitro Functional Assay (Test D)
The ability of a Compound of the invention to antagonize the action of the agonist [β-ala^8] […] Male New Zealand white rabbits are euthanized via i.v. injection into an ear vein with 60 mg/kg Nembutal (50 mg/mL). Preceding the Nembutal into the vein is Heparin (1000 units/mL) at 0.0025 mL/kg for anticoagulant purposes. The chest cavity is opened from the top of the rib cage to the stemum and a small incision is made into the heart so that the left and right pulmonary arteries can be cannulated with polyethylene tubing (PE260 and PE190 respectively). […] Responses are measured on a Grass polygraph via Grass FT-03 transducers and the electrical signals (data) acquired using a Mi^2 software/hardware system for subsequent conversion to measures of contraction. […]
For non-competitive antagonists, the percent inhibition of contraction is determined at a given concentration of the antagonist Percent inhibition is determined when a tested Compound produces a statistically significant (p<0.05) reduction of the total contraction which is calculated using the total contraction as a percent of the control value. Potencies of competitive Compounds are determined by calculating the apparent dissociation constants (KB) for each concentration tested using the standard equation: […]

NK1 = target: T3, NK1 (Oryctolagus cuniculus, UniProt G1SEI7); assay: Rabbit Pulmonary Artery: NK1 In Vitro Functional Assay (Test C); type: cell-based; conditions: agonist ASMSP
T3 construct: The pulmonary arteries are isolated from the rest of the tissues and cut in half to serve as pairs; from tissue; host or cells: rabbit pulmonary artery rings, endothelium intact
T3 sequence (G1SEI7 1-407): as the sequence (P30547 whole entry) above, with G176S, S186E, A329G, F342L, D368E, P369A, T376N, V395M, S399F counted along it
Experimental: Rabbit Pulmonary Artery: NK1 In Vitro Functional Assay (Test C)
The ability of a Compound of the invention to antagonize the action of the agonist Ac-[Arg^6, Sar^9, Met(O2)^11]
Male New Zealand white rabbits are euthanized via i.v. injection into an ear vein with 60 mg/kg Nembutal (50 mg/mL). Preceding the Nembutal into the vein is Heparin (1000 units/mL) at 0.0025 ml/kg for anticoagulant purposes. The chest cavity is opened from the top of the rib cage to the sternum and the heart, lungs and part of the trachea are removed. The pulmonary arteries are isolated from the rest of the tissues and cut in half to serve as pairs.
The segments are suspended between stainless steel stirrups, so as not to remove any of the endothelium, and placed in water-jacketed (37° C.) tissue baths containing physiological salt solution of the following composition (mM): NaCl, 118.0; KCl, 4.7; CaCl2, 1.8; MgCl2, 0.54; NaH2PO4, 1.0; NaHCO3, 25.0; glucose, 11.0; indomethacin, 0.005(to inhibit cyclooxygenase); and dl-Propranolol, 0.00l(to block β receptors); gassed continuously with 95% O2-5% CO2. Responses are measured on a Grass polygraph via Grass FT-03 transducers and the electrical signals (data) acquired using a Mi^2 software/hardware system for subsequent conversion to measures of relaxation. […]

| Oral Activity (Test E) NK1 P/A (NK1 receptors) | Kb (NK2) [nM] | inhibition at 0.01 µM (NK1; inhibition of relaxation at 10^−8 M) [%] | Kb (NK1; -log molar KB, read-out: Rabbit Pulmonary Artery NK1 pKb (Test C) (converted)) [nM] | Structure (SMILES) |
| --- | --- | --- | --- | --- |
| 454 | 79.4 | 74 |  | COc1c(C#N)cc2c(c1C(=O)N(C)C[C@@H](CCN1CCC(c3ccccc3[S@+](C)[O-])CC1)c1ccc(Cl)c(Cl)c1)CCCC2 [Example 5, N-[(S)-2-(3,4-Dichlorophenyl)-4-[4-[(S)-2-methylsulfinylphenyl]-1-piperidinyl]butyl]-N-methyl-3-cyano-2-methoxy-5,6,7,8-tetrahydro-1-naphthamide] |
| 147 | 25.1 |  | 5.01 | CN(C[C@@H](CCN1CCC(c2ccccc2[S@+](C)[O-])CC1)c1ccc(Cl)c(Cl)c1)C(=O)c1cc(C#N)cc2c1CCCC2 [Example 6, N-[2-(S)-(3,4-Dichlorophenyl)4-[-4-[(S)-2-(methylsulfinyl)phenyl]-1-piperidinyl]butyl]-N-methyl-3-cyano-5,6,7.8-tetrahydro-1-naphthamide] |
